From PMC6170196 (Clinical pharmacology and therapeutics, 2012)
Where two headings read alike, the source gives them in different places. Marks after values point to notes of the source that are not given here.

Assay type: in vivo, human
Conditions: flurbiprofen 100 mg oral, n=12
[1] = arithmetic mean, Fluconazole/ placebo
[2] = arithmetic mean, Pom extract/ placebo
[3] = arithmetic mean, Pom juice/ placebo
[4] = geometric mean, Fluconazole/ placebo
[5] = geometric mean, Pom extract/ placebo
[6] = geometric mean, Pom juice/ placebo

Cmax ratio [1]: 1.57 ^*
Total AUC ratio [1]: 2.04 ^*
Cmax ratio [2]: 1.08
Total AUC ratio [2]: 1.09
Cmax ratio [3]: 1.09
Total AUC ratio [3]: 1.08
Cmax ratio [4]: 1.47
Total AUC ratio [4]: 1.97
Cmax ratio [5]: 1.03
Total AUC ratio [5]: 1.06
Cmax ratio [6]: 1.03
Total AUC ratio [6]: 1.05
Structure (SMILES): CC(C(=O)O)c1ccc(-c2ccccc2)c(F)c1 (stereo not drawn) [FLURBIPROFEN, Flurbiprofen]
